Assay results: article PMC6026847, “Synthesis and Evaluation of the First Fluorescent Antagonists of the Human P2Y2 Receptor Based on AR-C118925” (Journal of Medicinal Chemistry, 2018)
Where two headings read alike, the source gives them in different places.

Assays:
hP2Y2 [1] = test system: hP2Y2; design: method as in PMID 8564228; details: endogenous agonists; cited from earlier work
[2] = test system: human bronchial epithelial cells; design: method as in PMID 15231488; details: ex vivo; cited from earlier work
[3] = test system: panel of 37 other receptors; design: method as in PMID 15231488; details: 10 μM; cited from earlier work
hP2Y2R [4] = biological target: T1, hP2Y2R (Homo sapiens, UniProt P41231); assay: Calcium-mobilization assay in P2Y2-1321N1 cells (antagonism of UTPγS); format: cell-based
T1 construct: The 1321N1 cells expressing wild-type P2Y2R (P2Y2R-1321N1) were gifted by Dr. Elizabeth Rosethorne; expressed in transfected cells; host or cells: 1321N1 astrocytoma cells (P2Y2R-1321N1), gifted
T1 sequence (P41231 whole entry): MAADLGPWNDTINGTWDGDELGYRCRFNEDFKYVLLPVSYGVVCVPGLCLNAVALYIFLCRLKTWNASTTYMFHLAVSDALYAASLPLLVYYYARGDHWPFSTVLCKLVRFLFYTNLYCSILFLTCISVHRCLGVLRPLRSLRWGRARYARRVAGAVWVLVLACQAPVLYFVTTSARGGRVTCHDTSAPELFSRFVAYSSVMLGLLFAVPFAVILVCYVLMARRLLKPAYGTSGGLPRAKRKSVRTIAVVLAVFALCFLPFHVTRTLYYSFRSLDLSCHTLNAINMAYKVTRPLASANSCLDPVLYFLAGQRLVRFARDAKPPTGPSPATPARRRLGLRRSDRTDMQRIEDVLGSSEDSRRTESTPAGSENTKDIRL

hP2Y2 [5] = test system: hP2Y2; design: method as in PMID 28958619; details: cited from earlier work
NLuc-P2Y2R [6] = biological target: T2, NLuc-P2Y2R (Homo sapiens, UniProt P41231); assay: NanoBRET competition binding in NLuc-P2Y2 1321N1 cells; details: Table 7, competition binding with fluorescent ligand 98, mean ± SEM
T2 construct: expressed in transfected cells
T2 sequence (P41231 2-377 limits assumed): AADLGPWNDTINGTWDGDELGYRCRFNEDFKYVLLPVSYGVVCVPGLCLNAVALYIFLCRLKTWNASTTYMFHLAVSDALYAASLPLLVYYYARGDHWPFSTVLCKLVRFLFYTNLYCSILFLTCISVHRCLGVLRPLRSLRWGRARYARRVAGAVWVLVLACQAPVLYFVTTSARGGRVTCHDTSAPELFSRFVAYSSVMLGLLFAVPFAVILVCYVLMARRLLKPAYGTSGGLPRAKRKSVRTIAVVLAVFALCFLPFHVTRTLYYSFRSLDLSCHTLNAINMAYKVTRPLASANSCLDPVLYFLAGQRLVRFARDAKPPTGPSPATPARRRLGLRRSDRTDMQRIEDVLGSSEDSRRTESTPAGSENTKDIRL

NLuc-P2Y2R [7] = biological target: T2, NLuc-P2Y2R; assay: NanoBRET saturation binding in NLuc-P2Y2R 1321N1 astrocytoma cells; details: Table 6; saturation binding curves; 1321N1 cells expressing NLuc-P2Y2R; mean ± SEM; read-out: NanoBRET pKd (converted)
Protocol: To determine whether any of these conjugates had affinities for P2Y2R and consequently if they could be used in NanoBRET binding assays, a 1321N1 astrocytoma cell line expressing recombinant P2Y2R tagged on its N-terminus with NLuc (NLuc-P2Y2R) was generated. […] These NLuc-P2Y2 cells were treated with increasing concentrations of 66–69 and then treated with the NLuc substrate, furimazine, before the resulting BRET signal was monitored. […] However, this did illustrate the power of using NanoBRET to monitor ligand binding to low-affinity receptors.
Nucleophilic displacement of the 2-chloro substituent of 43 by either tert-butyl 3-aminopropanoate or tert-butyl 6-aminohexanoate gave the corresponding tert-butyl esters (70 and 71). […] The carboxylic acids were generated from the tert-butyl esters via TFA-mediated hydrolysis and subsequently coupled with tert-butyl (2-aminoethyl)carbamate or tert-butyl (2-(2-aminoethoxy)ethyl)carbamate to generate the corresponding amides (74–77). The Boc protecting groups were removed using TFA, and the resulting amines were coupled with the appropriate commercially available BODIPY succinimidyl ester (SE), generating a small library of 14 fluorescent conjugates (78–91). These fluorescent conjugates were initially tested using the aforementioned NanoBRET binding assay at fixed concentrations of 10 μM in the presence or absence of 10 μM 1 (see Figure S1 in the Supporting Information).
The saturation and competition binding assays were performed according to the methodology of Stoddart.[18] Briefly, the assays were performed on stably transfected NLucP2Y2-1321N1 cells that had been seeded 24 h prior to the experiment in white Thermo Scientific Matrix 96-well microplates. The medium in each well was removed and replaced with HBSS containing apyrase (1 U/mL) and the required concentration of the fluorescent ligand with or without the competing ligand. Upon the addition of the fluorescent ligand, the cells were incubated for 1 h at 37 °C without CO2. The NLuc substrate, furimazine (Promega), was then added to a final concentration of 10 μM, and the plate was incubated for a further 5 min at 37 °C without CO2. The luminescence and resulting BRET were measured using a PHERAstar FS plate reader (BMG Labtech) at room temperature. For the assays involving 97, sequential measurements of the filtered light emissions were made at 460 nm (80 nm bandpass) and >610 nm (long-pass), and the raw BRET ratios were calculated by dividing the >610 nm emissions by the 460 nm emissions. For the assays involving 98, the measurements were made at 475 nm (30 nm bandpass) and 535 nm (30 nm bandpass), and the raw BRET ratios were calculated by dividing the 535 nm emissions by the 475 nm emissions.
The total and nonspecific saturation binding curves were fitted simultaneously using eq 2: [drawing 7] 2 where Bmax is the maximum specific BRET signal, [b] is the nanomolar concentration of the fluorescent ligand, Kd is the equilibrium dissociation constant in nanomolar, M is the slope of the nonspecific-binding component, and C is the intercept with the Y-axis. The pKd is −logKd.

hP2Y2R [8] = biological target: T1, hP2Y2R; assay: Confocal microscopy of fluorescent ligands on 1321N1 astrocytoma cells expressing hP2Y2R; format: cell-based
Protocol: The P2Y2R-1321N1 cells were grown to approximately 80% confluency on eight-well Labtek chambered cover glasses (Nunc Nalgene) in normal growth medium. The growth medium was removed and replaced with HBSS containing apyrase (1 U/mL) and either 1 (10 μM) or the vehicle, and the cells incubated for 30 min at 37 °C without CO2. The cells were then incubated with 97 or 98 at the required concentration for 10 min at room temperature prior to the collection of the single-equatorial confocal images. The images were obtained on a Zeiss LSM710 confocal microscope using a 40× c-Apochromat 1.2NA water-immersion objective. For 97, the images were collected using a 633 nm excitation wavelength and a 488/561/633 dichroic, and the emissions were collected through a 650LP filter. For 98, a 488 nm excitation wavelength was used with the same dichroic, and the emissions were collected using an LP575 filter. In each case, a pinhole diameter of 1 airy unit was used, and the laser power, gain, and offset were kept the same for all of the samples within each experiment. For both 97 and 98, the images presented are as representative of an individual experiment with matched conditions. Linear adjustments to the image brightness and contrast have been applied equally across all of the comparative images using Zen software in order to prepare the images for presentation.

NLuc-P2Y2R [9] = biological target: T2, NLuc-P2Y2R; assay: Calcium signal of NLuc-tagged P2Y2 receptors in 1321N1 cells; format: cell-based; details: n = 3, read-out: UTPγS EC50 (calcium signal)
Protocol: To create the NLuc-P2Y2R constructs, human P2Y2R DNA (obtained from the Missouri S&T cDNA Resource Center) was amplified by PCR to remove the methionine start signal and cloned into pCR2.1 (linearized vector, Invitrogen). P2Y2R was then subcloned in-frame with the membrane-signal sequence of the 5HT3A receptor and the full-length sequence of nanoluciferase.
P2Y2-1321N1 cells seeded into black-sided 96-well view plates were incubated at 37 °C without CO2 for 45 min in a total volume of 100 μL of a HEPES-buffered saline solution (HBSS; 10 mM HEPES, 10 mM glucose, 145 mM NaCl, 5 mM KCl, 1 mM MgSO4, 2 mM sodium pyruvate, and 1.3 mM CaCl2) containing 2.5 mM probenecid, 2.3 μM Fluo 4AM, 0.023% pluronic acid, 0.5 mM Brilliant Black, 1 U/mL apyrase, and the ligand under investigation or the vehicle. The plates were then loaded onto a plate reader (FLEXstation, Molecular Devices), and the fluorescence was measured (excitation: 485 nm, emission: 525 nm) every 1.52 s for up to 200 s after the addition of UTPγS at 15 s. For the investigation of the BODIPYFL-labeled ligands, Fluo 4AM was replaced with 2.0 μM X-Rhod-1 AM (excitation: 584 nm, emission: 612 nm).

[10] = Table 7, Gaddum equation, shift of agonist dose–response curve by a single antagonist concentration, mean ± SEM, read-out: pKb Ca2+ mobilization (converted)

In the case of `Nc1ncnc2c1ncn2[C@@H]1O[C@H](COP(=O)(O)OP(=O)(O)OP(=O)(O)O)[C@@H](O)[C@H]1O` [ATP, adenosine-5′-triphosphate], the EC50 (hP2Y2 [1]) is listed as 230 nM.
In the case of `Cc1ccc2c(c1)C=Cc1cc(C)ccc1C2c1cn(Cc2ccc(C(=O)Nc3nnn[nH]3)o2)c(=O)[nH]c1=S` [Example 1], the “antagonism of ATPγS-induced mucin secretion” value [2] is listed as “concentration-dependently antagonize” and the “activity against a panel of 37 other receptors” value [3] is listed as “inactive”.
For `Cc1ccc2c(c1)C=Cc1cc(C)ccc1C2c1cn(Cc2nc(C(=O)O)cs2)c(=O)[nH]c1=S` [Example 2, 2-((5-(2,8-dimethyl-5H-dibenzo[a,d][7]annulen-5-yl)-2-oxo-4-thioxo-3,4-dihydropyrimidin-1(2H)-yl)methyl)thiazole-4-carboxylic acid], the Kb (hP2Y2R [4]; Table 1, Gaddum equation, shift of UTPγS concentration–response curve by a single antagonist concentration, mean ± SEM, read-out: hP2Y2 pKb (converted)) is given as 372 nM and the “pA2 (literature/reported value)” value (hP2Y2 [5]) is given as “c The literature value is pA2 = 5.7.[8]”.
`Cc1ccc2c(c1)C=Cc1cc(C)ccc1C2c1cn(Cc2cc(C(=O)O)cc(C(=O)O)c2)c(=O)[nH]c1=S` [Example 60, 5-((5-(2,8-Dimethyl-5H-dibenzo[a,d][7]annulen-5-yl)-2-oxo-4-thioxo-3,4-dihydropyrimidin-1(2H)-yl)methyl)isophthalic Acid] showed a Kb (hP2Y2R [4]; [10]) of 295 nM, a Kd (hP2Y2R [4]; quoted in text for nonfluorescent antagonists, mean ± SEM, read-out: hP2Y2R affinity pKd (converted)) of 295 nM and a Ki (NLuc-P2Y2R [6]; read-out: pKi NanoBRET (98) (converted)) of 145 nM.
For `CC1=CC(C)=[N+]2C1=Cc1ccc(CCC(=O)NCCCCCC(=O)NCCNC(=O)CCNc3nc4c(s3)C=Cc3cc(Cl)ccc3C4c3cn(Cc4nc(C(=O)Nc5nnn[nH]5)cs4)c(=O)[nH]c3=S)n1[B-]2(F)F` (stereo not drawn) [Example 98, (E)-2-((5-(7-Chloro-2-((3-((2-(6-(3-(5,5-difluoro-7,9-dimethyl-5H-5λ^4,6λ^4-dipyrrolo[1,2-c:2′,1′-f][1,3,2]diazaborinin-3-yl)propanamido)hexanamido)ethyl)amino)-3-oxopropyl)amino)-4H-benzo[5,6]cyclohepta[1,2-d]thiazol-4-yl)-2-oxo-4-thioxo-3,4-dihydropyrimidin-1(2H)-yl)methyl)-N-(1H-tetrazol-5-yl)thiazole-4-carboxamide], the Kb (hP2Y2R [4]; 10 μM fluorescent ligand, rightward shift of agonist dose–response curve, hP2Y2R-1321N1 cells, read-out: pKb (converted)) was 1350 nM, the Kd (NLuc-P2Y2R [7]) was 479 nM and the “membrane-specific fluorescence after pretreatment with 1” value (hP2Y2R [8]; 100 nM fluorescent ligand plus 10 μM 1, 30 min at 37 °C) was “substantially reduced”. The “confocal imaging: fluorescence localisation” value (hP2Y2R [8]; 100 nM fluorescent ligand, 1321N1 astrocytoma cells expressing hP2Y2R) was “localized membrane fluorescence and very little intracellular fluorescence”.
For `O=c1[nH]c(=S)c(C2c3ccccc3CCc3ccccc32)cn1[C@@H]1O[C@H](COP(=O)([O-])OP(=O)([O-])C(Cl)(Cl)P(=O)([O-])[O-])[C@@H](O)[C@H]1O.[Na+].[Na+].[Na+].[Na+]` [Example 99, reference compound], the Kb (hP2Y2R [4]; [10]) is listed as 257 nM and the “pA2 (literature/reported value)” value (hP2Y2 [5]) is listed as “d Reported pA2 = 8.0.[8]”.
For `O=c1ccn([C@@H]2O[C@H](COP(=O)(O)OP(=O)(O)OP(=O)(O)O)[C@@H](O)[C@H]2O)c(=O)[nH]1` [UTP, uridine-5′-triphosphate], the EC50 (hP2Y2 [1]) is given as 140 nM.
For `O=c1ccn([C@@H]2O[C@H](COP(=O)(O)OP(=O)(O)OP(O)(O)=S)[C@@H](O)[C@H]2O)c(=O)[nH]1` [UTPγS, uridine-5′-(γ-thio)-triphosphate, reference compound], the EC50 (hP2Y2R [4]; agonist, calcium mobilization, n = 25) was 7.9 nM, the “pKi NanoBRET (98)” value (NLuc-P2Y2R [6]) was 5.46 ± 0.04 (6) and the EC50 (NLuc-P2Y2R [9]) was 91 ± 12 nM.
